{
  "source": "paper PMC9301969",
  "about": "(ACS Omega, 2022)",
  "target": "human serum albumin (HSA, nonglycated) (Homo sapiens, UniProt P02768)",
  "sequence (P02768 25-609)": "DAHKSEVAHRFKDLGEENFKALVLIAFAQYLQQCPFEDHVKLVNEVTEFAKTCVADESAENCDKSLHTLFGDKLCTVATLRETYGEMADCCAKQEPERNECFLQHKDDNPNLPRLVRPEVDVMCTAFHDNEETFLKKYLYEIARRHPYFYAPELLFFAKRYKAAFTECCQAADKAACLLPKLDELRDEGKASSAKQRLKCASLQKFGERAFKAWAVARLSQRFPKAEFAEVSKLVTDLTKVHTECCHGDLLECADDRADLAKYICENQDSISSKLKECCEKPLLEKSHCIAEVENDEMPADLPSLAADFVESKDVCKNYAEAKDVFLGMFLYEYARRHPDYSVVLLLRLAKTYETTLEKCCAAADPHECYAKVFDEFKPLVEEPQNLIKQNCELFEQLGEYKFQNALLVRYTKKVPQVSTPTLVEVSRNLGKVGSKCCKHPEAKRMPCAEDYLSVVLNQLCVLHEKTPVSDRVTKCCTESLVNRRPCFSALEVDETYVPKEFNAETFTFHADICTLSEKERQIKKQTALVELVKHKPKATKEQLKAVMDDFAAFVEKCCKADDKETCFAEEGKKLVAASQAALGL",
  "test": "fluorescence polarization",
  "assay_type": "binding",
  "data": [
    {"smiles": "O=C(O)CCN(Cc1ccc(C(F)(F)F)cc1B(O)O)Cc1c2ccccc2c(CN(CCC(=O)O)Cc2ccc(C(F)(F)F)cc2B(O)O)c2ccccc12", "note": "[compound 8, 3,3′-((anthracene-9,10-diylbis(methylene))bis((2-borono-4-(trifluoromethyl)benzyl)azanediyl))dipropionic acid]", "values": [
      {"measurement": "Kd", "value": 2000, "unit": "nM"}
    ]}
  ]
}
